Source: US10117890B2, “Methods and compositions for treating pain” (Academia Sinica, priority 2012, dated 2018)
Entries after “also recorded” stand apart in the source; their conditions may differ.

How the values were obtained:
[1] = test system: muscle nociceptors (ASIC3-positive muscle afferent DRG neurons expressing ISP-O); test: Whole-cell patch-clamp recording of outward currents in muscle afferent DRG neurons; assay type: cell-based, mice
Description: The digested DRG neurons were washed with fetal calf serum (FCS)-free DMEM or DMEM containing 10% FCS during each treatment. Fully digested DRGs were triturated and plated on poly-L-lysine-coated cover slides. Cell cultures were maintained in a 5% CO2 incubator at 37° C.
Whole-cell patch-clamp recordings of muscle-afferent neurons involved use of Axopatch MultiClamp 700B (Axon Instruments). Neurons with membrane potential >−40 mV were discarded. The bridge was balanced in current-clamp recording, and the series resistance was compensated 70% in voltage-clamp recording with […] 700B compensation circuitry. All experiments were performed at room temperature (21-25° C.) and completed within 30 hr post-seeding. Unless specifically mentioned, the patch pipettes were prepared in 1-5 MΩ and filled with internal solution containing (in mM) 100 KCl, 2 Nae-ATP, 0.3 Na3-GTP, 10 EGTA, 5 MgCl2, and 40 HEPES, adjusted to pH 7.4 with KOH. Recording cells were superfused in artificial cerebrospinal fluid (ACSF) by control with gravitational force. The ACSF contained (in mM) 130 NaCl, 5 KCl, 1 MgCl2, 2 CaCl2, 10 glucose, and 20 HEPES, adjusted to pH 7.4 with NaOH. Osmolarity was adjusted to 300 mOsm. The acidic ACSF was titrated to pH 6.8 by […]. […] If not specifically mentioned, drugs listed above were from Sigma Chemical (St. Louis, Mo.).
The procedure was repeated at least 2 times to ensure consistent data. […] ACSF-containing compounds were superfused for 1 min to ensure complete replacement of previous perfusate between treatments. […] A recording pipette containing 1 mM GDP-β-S was used in GTP dialysis. The GABA-B current was induced by 100 μM Baclofen at the beginning of dialysis (0, 1 and 2 min after whole-cell patch clamp). Then, Baclofen was used to re-stimulate the dialyzed neurons after 10-min dialysis (10, 11 and 12 min after whole-cell patch clamp).

ASIC3 = test: Whole-cell patch clamp of acid-induced current in CHO cells transfected with ASIC3; assay type: cell-based
[2] = test system: acid-induced chronic muscle pain after genistein treatment; test: Modified acid-induced chronic muscle pain model with genistein treatment (fibromyalgia model); assay type: in vivo, mice
Description: Panel A: a diagram showing that mice were first received an intramuscular injection of genistein (a tyrosine kinase inhibitor) and an acid saline to one side of gastrocnemius muscle, and then pain behaviors were assayed by using von-Frey filament test at 4 hr (D0) and until 29 days (D29) after acid injection. Panel B: is a chart showing that the single acid injection induced long-lasting chronic hyperalgesia in mice with genistein pretreatment (open circles, n=5), but only transient hyperalgesia in mice without genistein pretreatment (filled circles, n=4).
Mice received an intramuscular acid injection in the gastrocnemius muscle (GM) containing 20 μl acid saline (pH 4.0) with or without (Sar^9, Met(O2)^11)-substance P (SP; 4, 10, or 40 μM) or 100 μM RP67580 or 200 μM XE991. Mechanical hyperalgesia was assessed by applying a 0.2-mN von Frey filament to the plantar surface of both hind paws of mice. […] Responses of the paw to mechanical stimuli were measured before injection and at 4 and 24 hr and 5 days after the first acid injection (day 0) and at 4, 24, and 72 hr and 1 week after the second acid injection (day 5). For single-injection experiments, responses to mechanical stimuli were measured before the injection, at 4 hr and at 1, 3, 5, 7, 9, 11, 13, 15 and 22 days after the injection or at 4, 24, 48 hr and 7 and 14 days after the injection. […]

ICS-induced pain = test: Intermittent cold stress (ICS) mouse model of fibromyalgia, von Frey test; assay type: in vivo, mice
Description: Mechanical hyperalgesia was assessed by applying a 0.2 mN von Frey filament to the plantar surface of both hind paws. For each paw, the filament was applied for 5 times at 30-s intervals.
To induce fibromyalgia-like symptoms, mice were treated with intermittent cold stress, which produces long-lasting (more than 2 weeks) thermal hyperalgesia and mechanical allodynia, predominantly in females. Method: Mice were placed on stainless mesh plate in a cold room at 4° C. overnight (from 4:30 pm to 10:00 am), followed by intermittent cold stress with environment temperatures alternating between 24 and 4° C. every 30 min, from 10:00 am to 4:30 pm. These procedures were repeated twice. On day 3, the mice were adapted to 24 C for 1 h before behavioral testing.
The second fibromyalgia model is developed by Ueda's group, in which mice were treated with intermittent cold stress for 2 days (Nishiyori & Ueda, 2008). Mice treated with intermittent cold stress will develop long-lasting (>2 weeks) mechanical and thermal hyperalgesia. Analgesic effect of T1-11 was tested in these mice 5 day after intermittent cold stress (ICS). […] Moreover, we found T1-11 and substance P have synergistic effect in treating the ICS-induced pain.

[3] = test system: acid(ASIC3)-induced chronic muscle pain; test: Acid-induced chronic muscle pain model (repeated intramuscular acid injection, von Frey test); assay type: in vivo, mice; conditions: T1-11 4 pmole, co-injected with acid saline pH 4.0 into gastrocnemius muscle
Description: Adult (8- to 12-wk-old) C57/BL6 mice were used. All procedures followed the Guide for the Use of Laboratory Animals (National Academy Press, Washington D.C., USA) and were approved by the Institutional Animal Care and Use Committee of Academia Sinica. We aimed to minimize the number of animals used and their suffering without compromising the quality of the experiments. The generation and genotyping of Tac1^−/− mice and Asic3^−/− mice were as described. Both null mutant mice were backcrossed to C57/BL6 for 10 generations to establish a congenic strain. Congenic Tac1^−/− Asic3^−/− mice were offspring of Tacl^+/− and Asic3^+/− intercrosses.
Mice received an intramuscular acid injection in the gastrocnemius muscle (GM) containing 20 μl acid saline (pH 4.0) with or without (Sar^9, Met(O2)^11)-substance P (SP; 4, 10, or 40 μM) or 100 μM RP67580 or 200 μM XE991. Mechanical hyperalgesia was assessed by applying a 0.2-mN von Frey filament to the plantar surface of both hind paws of mice. Mice were acclimatized in an acrylic cubicle for 60 min before testing. A positive response was defined as the foot lifting when the von Frey filament was applied. For each paw, the filament was applied 5 times at 30-sec intervals. Responses of the paw to mechanical stimuli were measured before injection and at 4 and 24 hr and 5 days after the first acid injection (day 0) and at 4, 24, and 72 hr and 1 week after the second acid injection (day 5). For single-injection experiments, responses to mechanical stimuli were measured before the injection, at 4 hr and at 1, 3, 5, 7, 9, 11, 13, 15 and 22 days after the injection or at 4, 24, 48 hr and 7 and 14 days after the injection. NK1-selective agonist ((Sar^9, Met(O2)^11)—SP) was from Sigma Chemical (St. Louis, Mo.). NK1-selective antagonist (RP67580) and XE991 were from Tocris (Avonmouth, UK). The experimenters were blinded to the experimental manipulations. The person who conducted von Frey test had no information of the mouse genotypes or drug injections.

In the case of OC[C@H]1O[C@@H](n2cnc3c(NCc4ccc(O)cc4)ncnc32)[C@H](O)[C@@H]1O [T1-11, N^6-(4-hydroxybenzyl)adenosine], the “IT1-11 in A2A−/− muscle afferent DRG neurons” value ([1]; A2A−/− neurons) is reported as “not changed”, the EC50 ([1]; Mus musculus, DRG neuron, peak whole-cell current, 1, 3, 10, 30 and 100 nM, n=11, read-out: EC50 of T1-11-induced outward current (IT1-11)) is reported as 1.3 nM and the “induction of outward current in ASIC3/SP-expressing muscle DRG neurons” value ([1]; SP-sensitive muscle nociceptors) is reported as “elicited a slow inactivating outward current”. The “effect on M-type potassium current” value ([1]; voltage shift from −50 mV to −20 mV, muscle afferent neurons expressing ISP-O) was “enhanced M current”, the “acid-induced current in CHO cells transfected with ASIC3” value (ASIC3) was “blocked” and the “analgesic effect on mice that have developed chronic muscle pain” value ([2]; T1-11 75-150 μg/kg (i.p.)) was “dose-dependent analgesic effect”. For the same compound, the “hyperalgesia after genistein pretreatment and single acid injection, co-injection of acid and T1-11” value ([2]; co-injection with acid, n=6, D0 to D29) was “only showed the transient hyperalgesia”, the “analgesic effect on ICS-treated mice, T1-11 alone” value (ICS-induced pain; T1-11 3 μg/kg alone) was “did not show analgesic effect” and the “analgesic effect on ICS-treated mice, combination” value (ICS-induced pain; T1-11 3 μg/kg combined with 0.6 mg/kg SM-substance P) was “showed analgesic effect”. For the same compound, the “analgesic effect on mice treated with ICS” value (ICS-induced pain; T1-11 30 ug/kg) was “had analgesic effect”, the “therapeutic dose to treat the ICS-induced pain” value (ICS-induced pain; i.p., 5 day after ICS) was 0.03 mg/kg and the “acid-induced hyperalgesia, co-injection of acid and T1-11” value [3] was “abolished the transient hyperalgesia and prevented the development of chronic hyperalgesia; also recorded: still had analgesic effects”.
